19 compounds from US10703746B2, “Mutant IDH1 inhibitors useful for treating cancer” (THE UNITED STATES OF AMERICA, AS REPRESENTED BY THE …, priority 2014, dated 2020) can be followed below.

For assay [1], the target named is IDH1 R132C (Homo sapiens, UniProt O75874, R132C). Briefly: IDH1 R132C enzymatic assay (NADPH depletion coupled to diaphorase/resazurin). The assay is classed as biochemical. Conditions: IDH1 R132C enzymatic inhibition, IC50 class. The method in brief:
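NADPH depletion, read via diaphorase/resazurin coupling, after adding substrate at 0.6 mM α-KG and 0.012 mM NADPH. Beforehand, 0.00032 mg/mL enzyme sat with compound 30 min at room temperature in pH 6.5 potassium phosphate buffer with MgCl2, glycerol and BSA.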
Background: Alamar Blue is a resazurin reagent that responds to reducing activity.

For assay [2], the target named is IDH1 R132H (Homo sapiens, UniProt O75874, R132H). Briefly: IDH1 R132H enzymatic assay (NADPH depletion coupled to diaphorase/resazurin). The assay is classed as biochemical. Conditions: IDH1 R132H enzymatic inhibition, IC50 class.

The IC50 is the midpoint of a concentration-inhibition curve.

Chain of IDH1 R132H (O75874 whole entry R132H): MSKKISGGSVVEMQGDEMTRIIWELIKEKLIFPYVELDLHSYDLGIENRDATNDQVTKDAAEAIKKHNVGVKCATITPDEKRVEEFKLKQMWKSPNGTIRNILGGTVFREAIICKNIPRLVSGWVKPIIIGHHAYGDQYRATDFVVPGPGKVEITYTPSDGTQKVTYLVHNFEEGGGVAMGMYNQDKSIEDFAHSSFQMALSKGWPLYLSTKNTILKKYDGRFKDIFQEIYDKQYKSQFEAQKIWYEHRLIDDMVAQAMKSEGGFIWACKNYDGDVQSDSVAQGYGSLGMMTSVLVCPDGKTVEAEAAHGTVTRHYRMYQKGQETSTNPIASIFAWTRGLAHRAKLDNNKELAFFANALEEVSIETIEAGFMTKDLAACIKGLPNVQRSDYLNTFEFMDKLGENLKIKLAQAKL
Chain of IDH1 R132C (O75874 whole entry R132C): as the sequence (O75874 whole entry R132H) above, with H132C counted along it

With `CCc1cccc(CC)c1-n1c(CC(C)C)c(C(=O)N2CCNCC2)cc(-c2ccn(-c3ccc(Cl)cc3)n2)c1=O` [Compound 184], the IC50 in assay [1] and in assay [2] was less than 0.3 µM throughout.
Turning to `COc1ccc(OC)c(-n2c3c(cc(-c4ccc(-c5ccccc5)cc4)c2=O)C(=O)CC(C)(C)C3)c1` [Compound 185], the IC50 in assay [1] and in assay [2] was greater than 20 µM throughout.
Take `CCc1cccc(CC)c1-n1c2c(cc(-c3nc(-c4ccc(C(F)(F)F)cc4)cs3)c1=O)C(=O)CC(C)(C)C2` [Compound 186]: the IC50 was less than 0.3 µM in assay [1] and 0.3 to 1 µM in assay [2].
For `CCc1cccc(CC)c1-n1c(CC(C)C)c(C(=O)N[C@@H]2CCC[C@@H]2O)cc(-c2nc(-c3ccc(Cl)cc3)cs2)c1=O` [Compound 187] the same measures were 0.3 to 1 µM and 0.3 to 1 µM.
On the same counts, the results for `CCc1cccc(CC)c1-n1c(CC(C)C)c(C(=O)N2CCNCC2)cc(-c2nc(-c3ccc(C(=O)NC4CCCC4)cc3)c(C)s2)c1=O` [Compound 188] are 5 to 20 µM and 5 to 20 µM.
For `CCc1cccc(CC)c1-n1c(CC(C)C)c(C(=O)N2CCN[C@H](C(=O)O)C2)cc(-c2nc(-c3ccc(Cl)cc3)cs2)c1=O` [Compound 189] the same measures were less than 0.3 µM and 0.3 to 1 µM.
In the case of `COc1ccc(OC)c(-n2c(=O)c(-c3nc(-c4ccc(Cl)cc4)cs3)cc3c(O)cncc32)c1` [Compound 190], the half-maximal inhibitory concentration (IC50) in assay [1] and in assay [2] was greater than 20 µM throughout.
Consider `COc1ccc(OC)c(-n2c3c(cc(-n4ccc(-c5ccccc5)n4)c2=O)C(=O)CC(C)(C)C3)c1` [Compound 191], for which the concentration for half-maximal inhibition (IC50) in assay [1] and in assay [2] was 1 to 5 µM throughout.
Regarding `CCc1cccc(CC)c1-n1c(C)c(C(=O)NCc2ccccc2)cc(-c2nc(-c3ccc(Cl)cc3)cs2)c1=O` [Compound 192], the half-maximal inhibitory concentration (IC50) is 1 to 5 µM in assay [1] and greater than 20 µM in assay [2].
On to `CCc1cccc(CC)c1-n1c(CC(C)C)c(C(=O)N2CC(=O)N[C@H](C(=O)O)C2)cc(-c2nc(-c3ccc(Cl)cc3)cs2)c1=O` [Compound 193], for which the IC50 in assay [1] and in assay [2] was 0.3 to 1 µM throughout.
For `CCc1cccc(CC)c1-n1c2c(cc(-c3nc(-c4ccc(Cl)cc4)cs3)c1=O)C(=O)OC2` [Compound 194], the 50% inhibitory concentration (IC50) in assay [1] was 5 to 20 µM; in assay [2] it was greater than 20 µM.
On the same counts, the results for `CC1(C)CC(=O)c2cc(-c3nc(-c4ccc(Cl)cc4)cs3)c(=O)n(-c3ccccc3F)c2C1` [Compound 195] are 0.3 to 1 µM and 0.3 to 1 µM.
On the same counts, the results for `CCc1cccc(CC)c1-n1c(CC(C)C)c(C(=O)NC(CC)CO)cc(-c2nc(-c3ccc(Cl)cc3)cs2)c1=O` (centres unmarked) [Compound 196] are less than 0.3 µM and 1 to 5 µM.
For `CCc1cccc(CC)c1-n1c2c(cc(-c3nc(C4=CCN(C(=O)OC(C)(C)C)CC4)c(C)s3)c1=O)C(=O)CC(C)(C)C2` [Compound 197] the same measures were 5 to 20 µM and 1 to 5 µM.
For the compound `CCc1cccc(CC)c1-n1c(C)c(C(=O)N2CCNC(C(=O)O)C2)cc(-c2nc(-c3ccc(Cl)cc3)cs2)c1=O` (centres unmarked) [Compound 198], the half-maximal inhibitory concentration (IC50) in assay [1] and in assay [2] was 0.3 to 1 µM throughout.
Regarding `CC1(C)CC(=O)c2cc(-c3nc(-c4ccc(Cl)cc4)cs3)c(=O)n(-c3ccccc3O)c2C1` [Compound 199], the IC50 in assay [1] and in assay [2] was 5 to 20 µM throughout.
Turning to `CCc1cccc(CC)c1-n1c2c(cc(-c3nc(-c4ccccn4)cs3)c1=O)C(=O)CC(C)(C)C2` [Compound 200], the IC50 lay in the range of 1 to 5 µM in assay [1] and 5 to 20 µM in assay [2].
Consider `CCc1cccc(CC)c1-n1c(CC(C)C)c(C(=O)N2CCNC(CO)C2)cc(-c2nc(-c3ccc(Cl)cc3)cs2)c1=O` (centres unmarked) [Compound 201], for which the half-maximal inhibitory concentration (IC50) in assay [1] and in assay [2] was less than 0.3 µM each time.
On to `CCc1cccc(CC)c1-n1c(CC(C)C)c(C(=O)N2CCNC(c3ccccc3)C2)cc(-c2nc(-c3ccc(Cl)cc3)cs2)c1=O` (centres unmarked) [Compound 202], for which the results for the 50% inhibitory concentration (IC50) in assay [1] and in assay [2] were less than 0.3 µM and 0.3 to 1 µM, respectively.
